{
  "source": "ChEMBL document CHEMBL3044806",
  "about": "“Target-site mutation associated with glufosinate resistance in Italian ryegrass (Lolium perenne L. ssp. multiflorum)” (Pest Manag Sci, 2012)",
  "key": {"[1]": {"system": "Lolium multiflorum", "experiment": "(§1) Induction of ammonia accumulation in glufosinate-resistant Lolium multiflorum MG (Italian ryegrass) seedlings at 3-leaf stage assessed as ammonia level per gram of leaves fresh weight at 0.4 kg Ai/ha measured 96 hr after compound treatment under greenhouse conditions (reference value: 12.41 +/- 0.97 ug/g of leaves fresh weight)", "assay_type": "functional"}, "[2]": {"system": "Lolium multiflorum", "experiment": "Resistance index, ratio of GR50 for glufosinate-resistant Lolium multiflorum MG (Italian ryegrass) expressing one amino acid substitution in plastidic GS2 gene aspartic acid for asparagine at position 171 to GR50 for glufosinate-susceptible Lolium multiflorum (Italian ryegrass)C1", "assay_type": "functional"}, "[3]": {"system": "Lolium multiflorum", "experiment": "Herbicidal activity against glufosinate-susceptible Lolium multiflorum C2 (Italian ryegrass) assessed as reduction above-ground dry weight measured after 15 days post compound treatment under greenhouse conditions", "assay_type": "functional"}, "[4]": {"system": "Lolium multiflorum", "experiment": "Herbicidal activity against glufosinate-resistant Lolium multiflorum MG (Italian ryegrass) expressing one amino acid substitution in plastidic GS2 gene aspartic acid for asparagine at position 171 assessed as reduction above-ground dry weight measured after 15 days post compound treatment under greenhouse conditions", "assay_type": "functional"}, "[5]": {"system": "Lolium multiflorum", "experiment": "as §1, with “24” for “96”", "assay_type": "functional"}, "[6]": {"system": "Lolium multiflorum", "experiment": "as §1, with “48” for “96”", "assay_type": "functional"}, "[7]": {"biological_target": "T1, Glutamine synthetase (Lolium perenne, UniProt C5IW59)", "T1 sequence (C5IW59 whole entry)": "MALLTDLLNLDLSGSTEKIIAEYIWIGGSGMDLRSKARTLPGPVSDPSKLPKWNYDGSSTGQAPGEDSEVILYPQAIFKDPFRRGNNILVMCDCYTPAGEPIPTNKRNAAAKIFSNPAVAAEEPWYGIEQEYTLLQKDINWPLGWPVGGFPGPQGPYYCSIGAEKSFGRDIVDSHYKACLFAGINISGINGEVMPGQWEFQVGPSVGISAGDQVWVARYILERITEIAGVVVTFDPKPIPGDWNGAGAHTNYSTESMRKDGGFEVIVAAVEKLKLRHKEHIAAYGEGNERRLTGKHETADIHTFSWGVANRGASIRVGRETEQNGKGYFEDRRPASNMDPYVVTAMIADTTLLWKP", "experiment": "Inhibition of glutamine synthetase in glufosinate-susceptible Lolium multiflorum C2 (Italian ryegrass) seedlings", "conditions": "read-out: I50"}, "[8]": {"biological_target": "T1, Glutamine synthetase", "experiment": "Inhibition of glutamine synthetase in glufosinate-susceptible Lolium multiflorum C1 (Italian ryegrass) seedlings", "conditions": "read-out: I50"}, "[9]": {"system": "Lolium multiflorum", "experiment": "as §1, with “glufosinate-susceptible” for “glufosinate-resistant”, “C1” for “MG”, “72” for “96”, “11.04” for “12.41”, “0.89” for “0.97”", "assay_type": "functional"}, "[10]": {"system": "Lolium multiflorum", "experiment": "as §1, with “glufosinate-susceptible” for “glufosinate-resistant”, “C1” for “MG”, “11.04” for “12.41”, “0.89” for “0.97”", "assay_type": "functional"}, "[11]": {"system": "Lolium multiflorum", "experiment": "as §1, with “glufosinate-susceptible” for “glufosinate-resistant”, “C2” for “MG”, “72” for “96”, “14.79” for “12.41”, “4.09” for “0.97”", "assay_type": "functional"}, "[12]": {"system": "Lolium multiflorum", "experiment": "as §1, with “glufosinate-susceptible” for “glufosinate-resistant”, “C1” for “MG”, “48” for “96”, “11.04” for “12.41”, “0.89” for “0.97”", "assay_type": "functional"}, "[13]": {"system": "Lolium multiflorum", "experiment": "as §1, with “glufosinate-susceptible” for “glufosinate-resistant”, “C2” for “MG”, “14.79” for “12.41”, “4.09” for “0.97”", "assay_type": "functional"}, "[14]": {"system": "Lolium multiflorum", "experiment": "Resistance index, ratio of GR50 for glufosinate-resistant Lolium multiflorum MG (Italian ryegrass) expressing one amino acid substitution in plastidic GS2 gene aspartic acid for asparagine at position 171 to GR50 for glufosinate-susceptible Lolium multiflorum (Italian ryegrass)C2", "assay_type": "functional"}, "[15]": {"system": "Lolium multiflorum", "experiment": "as §1, with “72” for “96”", "assay_type": "functional"}, "[16]": {"system": "Lolium multiflorum", "experiment": "as §1, with “glufosinate-susceptible” for “glufosinate-resistant”, “C2” for “MG”, “48” for “96”, “14.79” for “12.41”, “4.09” for “0.97”", "assay_type": "functional"}, "[17]": {"system": "Lolium multiflorum", "experiment": "Herbicidal activity against glufosinate-susceptible Lolium multiflorum C1 (Italian ryegrass) assessed as reduction above-ground dry weight measured after 15 days post compound treatment under greenhouse conditions", "assay_type": "functional"}, "[18]": {"system": "Lolium multiflorum", "experiment": "as §1, with “glufosinate-susceptible” for “glufosinate-resistant”, “multiflorum” for “multiflorum MG”, “three-leaf” for “3-leaf”, “24” for “96”, “11.04” for “12.41”, “0.89” for “0.97”", "assay_type": "functional, C1"}, "[19]": {"system": "Lolium multiflorum", "experiment": "as §1, with “glufosinate-susceptible” for “glufosinate-resistant”, “C2” for “MG”, “24” for “96”, “14.79” for “12.41”, “4.09” for “0.97”", "assay_type": "functional"}, "[20]": {"biological_target": "T1, Glutamine synthetase", "experiment": "Inhibition of glutamine synthetase in glufosinate-resistant Lolium multiflorum MG (Italian ryegrass) seedlings", "conditions": "read-out: I50"}},
  "data": [
    {"molecule": "CP(=O)(O)CCC(N)C(=O)O", "note": "(stereo not given) [GLUFOSINATE]", "values": [
      {"measurement": "Activity", "setting": "[1]", "result": 256, "unit": "µg/g"},
      {"measurement": "Ratio", "setting": "[2]", "result": 2.8},
      {"measurement": "GR50", "setting": "[3]", "result": 0.18, "unit": "KgAi/ha"},
      {"measurement": "GR50", "setting": "[4]", "result": 0.45, "unit": "KgAi/ha"},
      {"measurement": "Activity", "setting": "[5]", "result": 165, "unit": "µg/g"},
      {"measurement": "Activity", "setting": "[6]", "result": 187, "unit": "µg/g"},
      {"measurement": "IC50", "setting": "[7]", "result": 137, "unit": "µM"},
      {"measurement": "IC50", "setting": "[8]", "result": 31, "unit": "µM"},
      {"measurement": "Activity", "setting": "[9]", "result": 332, "unit": "µg/g"},
      {"measurement": "Activity", "setting": "[10]", "result": 428, "unit": "µg/g"},
      {"measurement": "Activity", "setting": "[11]", "result": 353, "unit": "µg/g"},
      {"measurement": "Activity", "setting": "[12]", "result": 304, "unit": "µg/g"},
      {"measurement": "Activity", "setting": "[13]", "result": 384, "unit": "µg/g"},
      {"measurement": "Ratio", "setting": "[14]", "result": 2.8},
      {"measurement": "Activity", "setting": "[15]", "result": 212, "unit": "µg/g"},
      {"measurement": "Activity", "setting": "[16]", "result": 320, "unit": "µg/g"},
      {"measurement": "GR50", "setting": "[17]", "result": 0.15, "unit": "KgAi/ha"},
      {"measurement": "Activity", "setting": "[18]", "result": 225, "unit": "µg/g"},
      {"measurement": "Activity", "setting": "[19]", "result": 244, "unit": "µg/g"},
      {"measurement": "IC50", "setting": "[20]", "result": 2430, "unit": "µM"}
    ]}
  ]
}
